In patent US20230295140A1, “INHIBITORS OF VAP-1” (Acucela Inc., priority 2021, published 2023):
pIC50: −log10 of the molar value. Structures can show the parent of a compound that is named as a salt.

Key:
Format in all cases: biochemical
rhMAO-A = rhMAO-A (Homo sapiens (Human), UniProt P21397); experiment: MAO-Glo assay, MAO-A inhibition; conditions: for IC50: class symbols, ranges defined in μM
Method: (§1) The capability of compounds described herein to inhibit MAO was determined using a modified Promega MAO-Glo™ assay kit. The substrate ((4S)-4,5-dihydro-2-(6-hydroxybenzothiazolyl)-4-thiazolecarboxylic acid) was converted by MAO to produce methyl ester luciferin. The luciferin was then converted by luciferase to produce oxyluciferin and light. The light was measured using a luminescence setting on the plate reader. A standard curve was prepared by serially diluting luciferin in reaction buffer. The standard kit reaction buffer was used—100 mM HEPES (pH 7.5), 5% glycerol. The substrate was dispensed into the wells so that the final concentration for MAO-A inhibition assay would be 10 μM and MAO-B inhibition assay would be […]. Inhibitors were diluted in DMSO to 4× and distributed to the appropriate wells. Clorgyline and Deprenyl served as positive controls. rhMAO-A and rhMAO-B were purchased from Sigma. MAO-A or MAO-B was added to the appropriate wells. The plate was incubated for 1 hour, at room temperature with gentle shaking (90 rpm). The detection agent was added at equal volume (48 μL detection agent to 48 μL reaction). The plate was incubated for 20 minutes, at room temperature with gentle shaking (90 rpm). The plate luminescence was read. Data processing was performed using Prism software.
(§2) The capability of compounds described herein to inhibit MAO was determined using a modified Promega MAO-Glo™ assay. Test compounds, substrate and enzyme were incubated per manufacturer instructions for 1 hour, at room temperature with gentle shaking (90 rpm) before addition of detection agent. The detection agent was added at equal volume (48 μL detection agent to 48 μL reaction). The plate was incubated for 20 minutes, at room temperature with gentle shaking (90 rpm). The plate luminescence was read. Data processing was performed using Prism software.

rhVAP-1 = rhVAP-1 (Homo sapiens (Human), UniProt Q16853); experiment: VAP-1 fluorometric assay (Amplex Red/HRP, benzylamine substrate); conditions: class symbols, ranges defined in μM
Method: The capability of compounds described herein to inhibit the enzymatic activity of vascular adhesion protein-1 (VAP-1) was determined by fluorometric assay. The assay procedure provided by R&D Systems was modified slightly for use as an inhibitor screening assay. The assay measured the H2O2 generated from the oxidative deamination of benzylamine by rhVAP-1 by converting Amplex® Red to the fluorescent product, resorufin, via horseradish peroxidase (HRP) and H2O2. Reaction buffer was 10 mM NaHCO3, pH 7.4. A standard curve was prepared by serially diluting H2O2 in reaction buffer. A 10 μM solution of resorufin was prepared in reaction buffer and was dispensed to 2 wells. These wells served as positive control for maximum fluorescence. Reaction buffer was added to the individual wells so that the final volume in each well was 100 μL. Amplex Red was diluted to 1 mM in reaction buffer. A 10 U stock of HRP was prepared in reaction buffer. A reaction cocktail was prepared by mixing equal parts 1 mM Amplex Red with 10 U HRP with 3 parts reaction buffers. The reaction cocktail was added to the appropriate wells, so that that final concentration in the well was 0.05 mM Amplex Red and 0.5 U HRP. A 200 μM solution of benzylamine was prepared in reaction buffer. Benzylamine was added to the appropriate wells so that the final concentration was 50 μM. Inhibitors were diluted in DMSO to 20× and distributed to the appropriate wells. LJP-1207 served a positive control. rhVAP-1 was purchased from R&D Systems. The concentration used for each lot was determined so that the activity was equal to the first lot. Two wells were left blank as controls. The plate was incubated for 30 minutes at 37° C., protected from light under foil. The plate was read at 530/35 emission and 590/35 excitation. Data processing was performed using Excel and Prism software.
The capability of compounds described herein to inhibit the enzymatic activity of vascular adhesion protein-1 (VAP-1) was determined by fluorometric assay. The assay procedure provided by R&D Systems was modified slightly for use as an inhibitor screening assay. The assay measured the H2O2 generated from the oxidative deamination of benzylamine by rhVAP-1 by converting Amplex® Red to the fluorescent product, resorufin, via horseradish peroxidase (HRP) and H2O2. Amplex Red, HRP, Benzylamine, inhibitors (with DMSO as vehicle, 0.5% v/v) and rhVAP-1 were added to the wells. Assay was conducted in 10 mM NaHCO3, pH 7.4. A standard curve was prepared by serially diluting H2O2 in reaction buffer. The plate was incubated for 30 minutes at 37° C., protected from light under foil. The plate was read at 530/35 emission and 590/35 excitation. Data processing was performed using Prism software.

rhMAO-B = rhMAO-B (Homo sapiens (Human), UniProt P27338); experiment: MAO-Glo assay, MAO-B inhibition; conditions: class symbols, ranges defined in μM
Method: as §1, §2

Sequence of rhMAO-B (P27338 whole entry): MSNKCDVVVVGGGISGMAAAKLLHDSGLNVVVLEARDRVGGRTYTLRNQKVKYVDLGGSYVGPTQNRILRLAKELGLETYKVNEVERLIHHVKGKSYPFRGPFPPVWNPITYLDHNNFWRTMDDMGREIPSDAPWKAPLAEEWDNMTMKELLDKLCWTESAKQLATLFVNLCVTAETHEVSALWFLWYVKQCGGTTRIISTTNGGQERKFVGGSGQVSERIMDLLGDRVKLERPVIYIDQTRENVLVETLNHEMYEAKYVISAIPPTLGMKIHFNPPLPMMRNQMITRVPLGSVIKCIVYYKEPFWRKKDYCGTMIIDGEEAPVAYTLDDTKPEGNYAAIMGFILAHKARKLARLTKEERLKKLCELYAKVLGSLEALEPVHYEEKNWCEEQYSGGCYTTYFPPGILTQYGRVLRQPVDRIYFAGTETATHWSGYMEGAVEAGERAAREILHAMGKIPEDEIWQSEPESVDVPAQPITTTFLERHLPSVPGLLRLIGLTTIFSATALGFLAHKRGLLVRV
Sequence of rhMAO-A (P21397 whole entry): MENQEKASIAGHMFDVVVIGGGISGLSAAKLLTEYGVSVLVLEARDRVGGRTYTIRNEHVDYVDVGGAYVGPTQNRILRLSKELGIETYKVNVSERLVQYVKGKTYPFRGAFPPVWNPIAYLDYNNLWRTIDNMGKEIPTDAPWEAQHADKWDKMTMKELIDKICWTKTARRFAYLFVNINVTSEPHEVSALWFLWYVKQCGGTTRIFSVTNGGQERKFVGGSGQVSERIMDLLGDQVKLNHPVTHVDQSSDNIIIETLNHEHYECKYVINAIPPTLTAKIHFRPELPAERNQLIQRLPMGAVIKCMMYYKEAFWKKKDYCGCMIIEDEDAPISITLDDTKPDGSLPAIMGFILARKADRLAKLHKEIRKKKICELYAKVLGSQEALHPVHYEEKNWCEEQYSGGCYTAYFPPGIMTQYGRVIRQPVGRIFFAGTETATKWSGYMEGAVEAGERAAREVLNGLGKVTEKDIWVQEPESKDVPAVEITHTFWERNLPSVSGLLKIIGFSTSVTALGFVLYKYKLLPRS
Sequence of rhVAP-1 (Q16853 whole entry): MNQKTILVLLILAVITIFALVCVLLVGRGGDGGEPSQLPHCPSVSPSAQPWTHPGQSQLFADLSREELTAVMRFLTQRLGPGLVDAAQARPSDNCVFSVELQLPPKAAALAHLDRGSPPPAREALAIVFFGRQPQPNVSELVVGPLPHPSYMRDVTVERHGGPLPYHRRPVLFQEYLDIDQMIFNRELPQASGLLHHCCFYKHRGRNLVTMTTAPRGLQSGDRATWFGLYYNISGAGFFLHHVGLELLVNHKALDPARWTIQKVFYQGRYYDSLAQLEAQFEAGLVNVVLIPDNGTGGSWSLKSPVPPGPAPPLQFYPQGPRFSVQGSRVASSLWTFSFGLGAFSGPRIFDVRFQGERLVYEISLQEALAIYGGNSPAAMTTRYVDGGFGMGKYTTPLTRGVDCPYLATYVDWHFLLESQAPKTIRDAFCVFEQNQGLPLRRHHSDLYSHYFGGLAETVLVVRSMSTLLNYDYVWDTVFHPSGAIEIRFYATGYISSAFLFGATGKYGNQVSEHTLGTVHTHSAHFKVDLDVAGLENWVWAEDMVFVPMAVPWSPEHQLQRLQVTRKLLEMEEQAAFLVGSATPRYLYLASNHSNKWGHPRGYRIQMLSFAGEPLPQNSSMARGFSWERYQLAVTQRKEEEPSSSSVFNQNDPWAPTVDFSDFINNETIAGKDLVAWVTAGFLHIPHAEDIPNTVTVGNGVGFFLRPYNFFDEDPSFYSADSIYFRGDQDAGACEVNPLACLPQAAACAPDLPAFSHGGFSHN

| IC50 (rhMAO-A) [µM] | IC50 (rhVAP-1) [µM] | IC50 (rhMAO-B) [µM] | pIC50 (rhMAO-A; bound printed in cell) | SMILES |
| --- | --- | --- | --- | --- |
| 1 to 10 | < 0.1 | < 0.1 |  | CCCCc1nc2cc(OC/C(=C/F)CN)ccc2o1 [Example 8, (E)-2-(((2-butylbenzo[d]oxazol-5-yl)oxy)methyl)-3-fluoroprop-2-en-1-amine 4-methylbenzenesulfonate] |
| 1 to 10 | < 0.1 | 1 to 10 |  | COCCCNc1nc2ccc(OC/C(=C\F)CN)cc2o1 [Example 81, (Z)-6-((2-(aminomethyl)-3-fluoroallyl)oxy)-N-(3-methoxypropyl)benzo[d]oxazol-2-amine 4-methylbenzenesulfonate] |
|  | < 0.1 | 1 to 10 | < 4.30 | NC/C(=C\F)COc1ccc2nc(N3CCS(=O)(=O)CC3)oc2c1 [Example 90, (E)-4-(6-((2-(aminomethyl)-3-fluoroallyl)oxy)benzo[d]oxazol-2-yl)thiomorpholine 1,1-dioxide 4-methylbenzenesulfonate] |
|  | 0.1 to 1 |  |  | CCCCc1nc2ccc(OC/C(F)=C\CN)cc2o1 [Example 16, (E)-4-((2-butylbenzo[d]oxazol-6-yl)oxy)-3-fluorobut-2-en-1-amine] |
| 10 to 30 | < 0.1 | 0.1 to 1 |  | CN(Cc1ccccc1)c1nc2ccc(OC/C(=C/F)CN)cc2o1 [Example 49, (E)-6-((2-(aminomethyl)-3-fluoroallyl)oxy)-N-benzyl-N-methylbenzo[d]oxazol-2-amine 4-methylbenzenesulfonate] |
| 10 to 30 | < 0.1 | 1 to 10 |  | NC/C(=C\F)COc1ccc2nc(NCc3ccncc3)oc2c1 [Example 23, (E)-6-((2-(aminomethyl)-3-fluoroallyl)oxy)-N-(pyridin-4-ylmethyl)benzo[d]oxazol-2-amine 4-methylbenzenesulfonate] |
| 10 to 30 | < 0.1 | 0.1 to 1 |  | CCCCc1nc2ccc(SC/C(=C/F)CN)cc2o1 [Example 22, (E)-2-(((2-butylbenzo[d]oxazol-6-yl)thio)methyl)-3-fluoroprop-2-en-1-amine 4-methylbenzenesulfonate] |
| 1 to 10 | < 0.1 | < 0.1 |  | CCCCc1nc2ccc(OC/C(=C/F)CN)cc2s1 [Example 3, (E)-2-(((2-butylbenzo[d]thiazol-6-yl)oxy)methyl)-3-fluoroprop-2-en-1-amine] |
| 10 to 30 | < 0.1 | < 0.1 |  | CCCCc1nc2ccc(OC/C(=C/F)CN)c(F)c2o1 [Example 2, (E)-2-(((2-butyl-7-fluorobenzo[d]oxazol-6-yl)oxy)methyl)-3-fluoroprop-2-en-1-amine] |
| 10 to 30 | < 0.1 | 1 to 10 |  | NC/C(=C/F)COc1ccc2nc(NCc3ccc(C(F)(F)F)nc3)oc2c1 [Example 83, (Z)-6-((2-(aminomethyl)-3-fluoroallyl)oxy)-N-((6-(trifluoromethyl)pyridin-3-yl)methyl)benzo[d]oxazol-2-amine 4-methylbenzenesulfonate] |
| 10 to 30 | < 0.1 | 1 to 10 |  | CCCCc1nc2ccc(C/C(=C/F)CN)cc2o1 [Example 31, (Z)-2-((2-butylbenzo[d]oxazol-6-yl)methyl)-3-fluoroprop-2-en-1-amine] |
|  | 0.1 to 1 |  |  | CCCCc1nc2ccc(/C=C(/F)CN)cc2o1 [Example 95, (E)-3-(2-butylbenzo[d]oxazol-6-yl)-2-fluoroprop-2-en-1-amine] |
|  | < 0.1 | < 0.1 |  | CCCCc1nc2ccc(OC/C(=C\F)CN)c(F)c2s1 [Example 15, (Z)-2-(((2-butyl-7-fluorobenzo[d]thiazol-6-yl)oxy)methyl)-3-fluoroprop-2-en-1-amine 4-methylbenzenesulfonate] |

Continued, compound first:

| SMILES | IC50 (rhMAO-A) [µM] | IC50 (rhVAP-1) [µM] | IC50 (rhMAO-B) [µM] | pIC50 (rhMAO-A; bound printed in cell) |
| --- | --- | --- | --- | --- |
| CC1CN(c2nc3ccc(OC/C(=C/F)CN)cc3o2)C1 [Example 33, (E)-3-fluoro-2-(((2-(3-methylazetidin-1-yl)benzo[d]oxazol-6-yl)oxy)methyl)prop-2-en-1-amine 4-methylbenzenesulfonate] | 10 to 30 | < 0.1 | 0.1 to 1 |  |
| CCCCc1nc2ccc(CC(=CF)CN)cc2o1 [Example 18, 2-((2-butylbenzo[d]oxazol-6-yl)methyl)-3-fluoroprop-2-en-1-amine] | 1 to 10 | < 0.1 | 0.1 to 1 |  |
| NC/C(=C\F)COc1ccc2nc(NCc3cccnc3)oc2c1 [Example 26, (E)-6-((2-(aminomethyl)-3-fluoroallyl)oxy)-N-(pyridin-3-ylmethyl)benzo[d]oxazol-2-amine 4-methylbenzenesulfonate] | 10 to 30 | < 0.1 | 1 to 10 |  |
| NC/C(=C/F)COc1ccc2nc(NCCC3COC3)oc2c1 [Example 65, (Z)-6-((2-(aminomethyl)-3-fluoroallyl)oxy)-N-(2-(oxetan-3-yl)ethyl)benzo[d]oxazol-2-amine 4-methylbenzenesulfonate] | 0.1 to 1 | < 0.1 | 1 to 10 |  |
| CCCCc1nc2ccc(OC/C(=C/F)CN)c(Br)c2s1 [Example 7, (E)-2-(((7-bromo-2-butylbenzo[d]thiazol-6-yl)oxy)methyl)-3-fluoroprop-2-en-1-amine] | < 0.1 | < 0.1 | < 0.1 |  |
| CCCCc1nc2ccc(OC/C(=C\F)CN)cc2n1C [Example 73, (Z)-2-(((2-Butyl-1-methyl-1H-benzo[d]imidazol-6-yl)oxy)methyl)-3-fluoroprop-2-en-1-amine 4-methylbenzenesulfonate] | 1 to 10 | < 0.1 | 1 to 10 |  |
| CCCCc1nc2ccc(OCC(CN)=C(F)F)cc2o1 [Example 32, 2-(((2-butylbenzo[d]oxazol-6-yl)oxy)methyl)-3,3-difluoroprop-2-en-1-amine hydrochloride] | 10 to 30 | < 0.1 | 10 to 30 |  |
| C=C(CN)c1ccc2nc(CCCC)oc2c1 [Example 92, 2-(2-butylbenzo[d]oxazol-6-yl)prop-2-en-1-amine] | < 0.1 | 0.1 to 1 | < 0.1 |  |
| NC/C(=C/F)COc1ccc2nc(NCCC(Cl)CCO)oc2c1 (stereo not drawn) [Example 93, (Z)-5-((6-((2-(aminomethyl)-3-fluoroallyl)oxy)benzo[d]oxazol-2-yl)amino)-3-chloropentan-1-ol 4-methylbenzenesulfonate] | 1 to 10 | < 0.1 | 1 to 10 |  |
| COc1cccc(CNc2nc3ccc(OC/C(=C/F)CN)cc3o2)c1 [Example 25, (E)-6-((2-(aminomethyl)-3-fluoroallyl)oxy)-N-(3-methoxybenzyl)benzo[d]oxazol-2-amine 4-methylbenzenesulfonate] | 1 to 10 | < 0.1 | 0.1 to 1 |  |
| CCCCc1nc2ccc(CCC(=CF)CN)cc2o1 [Example 52, 4-(2-butylbenzo[d]oxazol-6-yl)-2-(fluoromethylene)butan-1-amine 4-methylbenzenesulfonate] |  | < 0.1 |  |  |
| C=C(CN)C(F)(F)Oc1ccc2nc(CCCC)oc2c1 [Example 29, 2-(((2-butylbenzo[d]oxazol-6-yl)oxy)difluoromethyl)prop-2-en-1-amine hydrochloride] |  | 0.1 to 1 |  |  |
